Data as given in PubChem BioAssay (NCI).
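Each compound was tested at five concentrations against cells in 96-well plates for 48 hours. GI50 = concentration required for 50% inhibition of growth. TGI denotes the concentration required for complete inhibition of growth.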

Assays:
Test in all cases: inhibition of tumour cell growth, NCI panel, 48 h
[1] = test system: A498 renal
[2] = test system: A549 NSCLC
[3] = test system: ACHN renal
[4] = test system: BT-549 breast
[5] = test system: CAKI-1 renal
[6] = test system: CCRF-CEM leukemia
[7] = test system: COLO 205 colon
[8] = test system: DU-145 prostate
[9] = test system: EKVX NSCLC
[10] = test system: HCC-2998 colon
[11] = test system: HCT-116 colon
[12] = test system: HCT-15 colon
[13] = test system: HOP-62 NSCLC
[14] = test system: HT29 colon
[15] = test system: IGROV1 ovarian
[16] = test system: K-562 leukemia
[17] = test system: KM12 colon
[18] = test system: LOX IMVI melanoma
[19] = test system: M14 melanoma
[20] = test system: MALME-3M melanoma
[21] = test system: MCF7 breast
[22] = test system: MDA-MB-231 breast
[23] = test system: MDA-MB-435
[24] = test system: MOLT-4 leukemia
[25] = test system: NCI-H226 lung
[26] = test system: NCI-H23 lung
[27] = test system: NCI-H460 lung
[28] = test system: NCI-H522 lung
[29] = test system: NCI/ADR-RES ovarian
[30] = test system: OVCAR-3 ovarian
[31] = test system: OVCAR-4 ovarian
[32] = test system: OVCAR-5 ovarian
[33] = test system: OVCAR-8 ovarian
[34] = test system: PC-3 prostate
[35] = test system: RXF 393 renal
[36] = test system: SF-268 CNS
[37] = test system: SF-295 CNS
[38] = test system: SF-539 CNS
[39] = test system: SK-MEL-2 melanoma
[40] = test system: SK-MEL-28 melanoma
[41] = test system: SK-MEL-5 melanoma
[42] = test system: SK-OV-3 ovarian
[43] = test system: SNB-19 CNS
[44] = test system: SNB-75 CNS
[45] = test system: SW-620 colon
[46] = test system: T-47D breast
[47] = test system: TK-10 renal
[48] = test system: U251 CNS
[49] = test system: UACC-257 melanoma
[50] = test system: UACC-62 melanoma
[51] = test system: UO-31 renal

`N#CC(C#N)=Cc1ccc(-c2ccc(-c3nc4ccccc4s3)cc2)s1` showed a GI50 [1] of 18.7 µM, a TGI [1] of 41.1 µM and a GI50 [2] of 13.8 µM. It also gave a TGI [2] greater than 100 µM, a GI50 [3] of 13.4 µM and a TGI [3] of 27.3 µM. The GI50 [4] was 31.1 µM, the TGI [4] was 85.2 µM and the GI50 [5] was 20.9 µM. The TGI [5] was 47.4 µM, the GI50 [6] was 21 µM and the TGI [6] was 62.9 µM. For the same molecule, the GI50 [7] was 23.7 µM, the TGI [7] was greater than 100 µM and the GI50 [8] was 17.7 µM. It also gave a TGI [8] of 44.8 µM, a GI50 [9] of 29.6 µM and a TGI [9] greater than 100 µM. It also gave a GI50 [10] of 27.9 µM, a TGI [10] of 65.8 µM and a GI50 [11] of 12.3 µM. The TGI [11] was 31.1 µM, the GI50 [12] was 15.5 µM and the TGI [12] was 40 µM. The GI50 [13] was 13 µM, the TGI [13] was 34.2 µM and the GI50 [14] was 29.7 µM. It also gave a TGI [14] greater than 100 µM, a GI50 [15] of 4.62 µM and a TGI [15] of 27.1 µM. For the same molecule, the GI50 [16] was 17.8 µM, the TGI [16] was 57.4 µM and the GI50 [17] was 19.9 µM. For the same molecule, the TGI [17] was 78.5 µM, the GI50 [18] was 8.5 µM and the TGI [18] was 23.5 µM. The GI50 [19] was 29.3 µM, the TGI [19] was 96.2 µM and the GI50 [20] was 16.6 µM. For the same molecule, the TGI [20] was 54.5 µM, the GI50 [21] was 26.2 µM and the TGI [21] was greater than 100 µM. For the same molecule, the GI50 [22] was 16.1 µM, the TGI [22] was 36.9 µM and the GI50 [23] was 25.5 µM. For the same molecule, the TGI [23] was 64.5 µM, the GI50 [24] was 22.8 µM and the TGI [24] was 68.5 µM. The GI50 [25] was 14.7 µM, the TGI [25] was 36.8 µM and the GI50 [26] was 18.1 µM. It also gave a TGI [26] of 52.9 µM, a GI50 [27] of 26 µM and a TGI [27] greater than 100 µM. The GI50 [28] was 19.4 µM, the TGI [28] was 54 µM and the GI50 [29] was 5.74 µM. For the same molecule, the TGI [29] was 22.7 µM, the GI50 [30] was 14.9 µM and the TGI [30] was 34.8 µM. For the same molecule, the GI50 [31] was 51.9 µM, the TGI [31] was greater than 100 µM and the GI50 [32] was 14 µM. For the same molecule, the TGI [32] was 30.5 µM, the GI50 [33] was 23.1 µM and the TGI [33] was 72.2 µM. The GI50 [34] was 6.23 µM, the TGI [34] was 23.1 µM and the GI50 [35] was 40.5 µM. The TGI [35] was greater than 100 µM, the GI50 [36] was 25.5 µM and the TGI [36] was greater than 100 µM. The GI50 [37] was 22.6 µM, the TGI [37] was 59.1 µM and the GI50 [38] was 18.3 µM. For the same molecule, the TGI [38] was 36.3 µM, the GI50 [39] was 33.1 µM and the TGI [39] was greater than 100 µM. For the same molecule, the GI50 [40] was 37.5 µM, the TGI [40] was greater than 100 µM and the GI50 [41] was 11.8 µM. It also gave a TGI [41] of 31.7 µM, a GI50 [42] of 19.7 µM and a TGI [42] of 50.5 µM. The GI50 [43] was 30 µM, the TGI [43] was greater than 100 µM and the GI50 [44] was 37.5 µM. The TGI [44] was greater than 100 µM, the GI50 [45] was 19.8 µM and the TGI [45] was greater than 100 µM. It also gave a GI50 [46] of 18.2 µM, a TGI [46] of 73.8 µM and a GI50 [47] of 22.7 µM. For the same molecule, the TGI [47] was 47.4 µM, the GI50 [48] was 14.9 µM and the TGI [48] was 31.9 µM. For the same molecule, the GI50 [49] was 65.3 µM, the TGI [49] was greater than 100 µM and the GI50 [50] was 15.1 µM. It also gave a TGI [50] of 30.7 µM, a GI50 [51] of 13.9 µM and a TGI [51] of 30.2 µM.
